System: acid secretion in isolated rabbit gastric glands
Assay: Acid secretion inhibition in isolated rabbit gastric glands
Type: cell-based
Conditions: Oryctolagus cuniculus, in vitro, read-out: IC50, inhibiting effect on acid secretion in vitro
Procedure: Acid Secretion Inhibition in Isolated Rabbit Gastric Glands
Inhibiting effect on acid secretion in vitro in isolated rabbit gastric glands was measured as described by Berglindh et al. (1976) Acta Physiol. Scand. 97, 401-414.

IC50 [µM]	SMILES
12.9	Cc1nc2c(NCc3ccccc3)cccc2[nH]1 [Compound (A), 4-benzylamino-2-methylbenzimidazole]
7.8	Cc1nc2c(OCc3ccccc3)cccc2[nH]1 [Compound (B), 4-benzyloxy-2-methyl benzimidazole]

From patent US6465505B1, “Benzyl-substituted benzimidazoles” (AstraZeneca AB, priority 1996, dated 2002)
